# Test results from patent US7071180B2, “Certain arylaliphatic and heteroaryl-aliphatic piperazinyl pyrazines and their use in the treatment of serotonin-related diseases” (Biovitrum AB, priority 1999, dated 2006).
# pKi: −log10 of the molar value. Counter-ions that a name gives are not always drawn.
# System: not given
# Assay: not given
# Conditions: not given
row,melting point,SMILES
1,145.9 to 146.3 °C,"Clc1ccc(OCCOc2nccnc2N2CCNCC2)cn1 (as salt: maleate) [Example 203, 2-{2-[(6-Chloro-3-pyridinyl)oxy]ethoxy}-3-(1-piperazinyl)pyrazine]"
2,186 °C,"CCOc1ncccc1OCCOc1nccnc1N1CCNCC1 (as salt: fumarate) [Example 199, 2-{2-[(2-Ethoxy-3-pyridinyl)oxy]ethoxy}-3-(1-piperazinyl)pyrazine]"
3,156 °C (dec.),"Nc1cc(OCCOc2nccnc2N2CCNCC2)c2ccccc2n1 (as salt: hydrochloride) [Example 160, 4-(2-{[3-(1-piperazinyl)-2-pyrazinyl]oxy}ethoxy)-2-quinolinamine]"
4,207 to 209 °C,"c1cnc2ccc(COc3nccnc3N3CCNCC3)cc2c1 (as salt: fumarate) [Example 213, 3-(1-Piperazinyl)-2-pyrazinyl 6-quinolinylmethyl ether]"
5,132 to 133 °C,"COc1ccccc1CCCOc1nccnc1N1CCNCC1 (as salt: maleate) [Example 211, 2-[3-(2-Methoxyphenyl)propoxy]-3-(1-piperazinyl)pyrazine]"
6,201 °C,"CSc1ncccc1OCCOc1nccnc1N1CCNCC1 (as salt: fumarate) [Example 197, 2-(2-{[2-(Methylsulfanyl)-3-pyridinyl]oxy}ethoxy)-3-(1-piperazinyl)pyrazine]"
7,115 to 117 °C,"c1ccc2nc(N3CCNCC3)c(OCCOc3cncnc3)nc2c1 [Example 166, 2-[2-(5-Pyrimidinyloxy)ethoxy]-3-(1-piperazinyl)quinoxaline]"
8,116 to 118 °C,"c1cncc(OCCOc2nsnc2N2CCNCC2)c1 (as salt: maleate) [Example 209, 1-{4-[2-(3-Pyridinyloxy)ethoxy]-1,2,5-thiadiazol-3-yl}piperazine]"
9,202 to 204 °C,"c1ccc2c(c1)CCC(COc1nc3ccccc3nc1N1CCNCC1)O2 (stereo not drawn) (as salt: salt) [Example 168, 2-(3,4-Dihydro-2H-chromen-2-ylmethoxy)-3-(1-piperazinyl)quinoxaline]"
10,50 °C (dec.),"Cc1ncccc1OCCOc1nccnc1N1CCNCC1 (as salt: hydrochloride) [Example 154, 2-(2-Methyl-3-pyridyloxy)ethyl 3-(1-piperazinyl)-2-pyrazinyl ether]"
11,160 to 167 °C,"CN1CCN(c2nccnc2OCC2COc3ccccc3O2)CC1 (stereo not drawn) (as salt: hydrochloride) [Example 169, 2,3-Dihydro-1,4-benzodioxin-2-ylmethyl 3-(4-methyl-1-piperazinyl)-2-pyrazinyl ether]"
12,110 to 115 °C,"Fc1cc2nc(OCCOc3cccnc3)c(N3CCNCC3)nc2cc1F (as salt: maleate) [Example 163, 2-[2-(3-Pyridinyloxy)ethoxy]-3-(1-piperazinyl)-6,7-difluoroquinoxaline]"
13,170 °C (dec.),"c1cc(OCCOc2nccnc2N2CCNCC2)ccn1 (as salt: hydrochloride) [Example 151, 2-(4-Pyridyloxy)ethyl 3-(1-piperazinyl)-2-pyrazinyl ether]"

# The remaining lines, values behind:
row,SMILES,melting point
1,"Nc1nc2c(OCCOc3nccnc3N3CCNCC3)cccc2o1 (as salt: fumarate) [Example 21, 4-(2-{[3-(1-piperazinyl)-2-pyrazinyl]oxy}ethoxy)-1,3-benzoxazol-2-amine]",138 to 140 °C
2,"CN1CC(COc2nccnc2N2CCNCC2)Oc2ccccc21 (stereo not drawn) (as salt: hydrochloride) [Example 131, 2-(4-Methyl-3,4-dihydro-2H-1,4-benzoxazin-2-ylmethoxy)-3-(1-piperazinyl)-pyrazine]",119 °C (dec.)
3,"NC(=O)c1cccc(OCCOc2nccnc2N2CCNCC2)c1 (as salt: maleate) [Example 110, 3-(2-{[3-(1-piperazinyl)-2-pyrazinyl]oxy}ethoxy)benzamide]",134 to 137 °C
4,"Nc1cccc2ccc(OCCOc3nccnc3N3CCNCC3)cc12 (as salt: maleate) [Example 145, 7-(2-{[3-(1-piperazinyl)-2-pyrazinyl]oxy}ethoxy)-1-naphthylamine]",120 °C (dec.)
5,"c1ccc2c(c1)CCC(COc1nccnc1N1CCNCC1)O2 (stereo not drawn) (as salt: hydrochloride) [Example 133, 2-(3,4-Dihydro-2H-chromen-2-ylmethoxy)-3-(1-piperazinyl)pyrazine]",170 to 175 °C
6,"Fc1cccc(F)c1OCCOc1nccnc1N1CCNCC1 [Example 83, 2-(2,6-Difluorophenoxy)ethyl 3-(1-piperazinyl)-2-pyrazinyl ether]",101 to 102 °C
7,"OCc1cccc(OCCOc2nccnc2N2CCNCC2)c1 (as salt: maleate) [Example 108, [3-(2-{[3-(1-piperazinyl)-2-pyrazinyl]oxy}ethoxy)phenyl]methanol]",123.2 to 123.5 °C
8,"O=[N+]([O-])c1ccc2c(c1)OC(COc1nccnc1N1CCNCC1)CO2 (stereo not drawn) [Example 146, 2-(7-Nitro-2,3-dihydro-1,4-benzodioxin-2-ylmethoxy)-3-(1-piperazinyl)pyrazine]",133 to 135 °C
9,"Cc1nc2cc(OCCOc3nccnc3N3CCNCC3)ccc2s1 (as salt: hydrochloride) [Example 143, 2-Methyl-5-(2-{[3-(1-piperazinyl)-2-pyrazinyl]oxy}ethoxy)-1,3-benzothiazole]",188 to 190 °C
10,"Cc1ccccc1OCCOc1nccnc1N1CCNCC1 (as salt: maleate) [Example 93, 2-(2-Methylphenoxy)ethyl 3-(1-piperazinyl)-2-pyrazinyl ether]",151 to 152 °C
11,"FC(F)(F)c1ccccc1OCCOc1nccnc1N1CCNCC1 [Example 91, 2-(2-Trifluoromethylphenoxy)ethyl 3-(1-piperazinyl)-2-pyrazinyl ether]",79 to 80 °C
12,"Fc1cccc(OCCOc2nccnc2N2CCNCC2)c1F (as salt: fumarate) [Example 105, 2-[2-(2,3-Difluorophenoxy)ethoxy]-3-(1-piperazinyl)pyrazine]",125 to 130 °C
13,"c1cc(OCCOc2nccnc2N2CCNCC2)c2cccnc2c1 (as salt: maleate) [Example 135, 2-(5-Quinolinyloxy)ethyl 3-(1-piperazinyl)-2-pyrazinyl ether]",132 to 135 °C
14,"c1ccc(OCCCCOc2nccnc2N2CCNCC2)cc1 (as salt: hydrochloride) [Example 98, 4-(Phenoxy)butyl 3-(1-piperazinyl)-2-pyrazinyl ether]",129 to 131 °C
15,"c1cnc2cc(OCCOc3nccnc3N3CCNCC3)ccc2c1 (as salt: maleate) [Example 137, 2-(7-Quinolinyloxy)ethyl 3-(1-piperazinyl)-2-pyrazinyl ether]",156 to 158 °C
16,"Cc1cccc(CCCOc2nccnc2N2CCNCC2)n1 (as salt: maleate) [Example 128, 2-[3-(6-Methyl-2-pyridinyl)propoxy]-3-(1-piperazinyl)pyrazine]",134 to 136 °C
17,"Clc1ccc(OCCOc2nc3ccccc3nc2N2CCNCC2)cc1 [Example 39, 2-[2-(4-Chlorophenoxy)ethoxy]-3-(1-piperazinyl)quinoxaline]",108 to 112 °C
18,"c1cnc(N2CCNCC2)c(OCCOc2ccc3cc[nH]c3c2)n1 [Example 142, 6-(2-{[3-(1-piperazinyl)-2-pyrazinyl]oxy}ethoxy)-1H-indole]",111 to 113 °C
19,"c1ccc(OCCCOc2nccnc2N2CCNCC2)cc1 (as salt: hydrochloride) [Example 90, 3-(Phenoxy)propyl 3-(1-piperazinyl)-2-pyrazinyl ether]",146 to 146.5 °C
20,"COc1ccc(F)cc1OCCOc1nccnc1N1CCNCC1 (as salt: fumarate) [Example 100, 2-[2-(5-Fluoro-2-methoxyphenoxy)ethoxy]-3-(1-piperazinyl)pyrazine]",172 to 176 °C
21,"C[C@@H]1CNCCN1c1nccnc1OCCOc1cccnc1 (as salt: hydrochloride) [Example 173, (2R)-Methyl-1-{3-[2-(3-pyridinyloxy)ethoxy]-2-pyrazinyl}piperazine]",180 to 183 °C
22,"N#Cc1ccccc1OCCOc1nccnc1N1CCNCC1 (as salt: maleate) [Example 96, 2-(2-Cyanophenoxy)ethyl 3-(1-piperazinyl)-2-pyrazinyl ether]",165 to 166 °C
23,"c1cncc(OCCOc2nccnc2N2CCNCC2)c1 (as salt: hydrochloride) [Example 150, 2-(3-Pyridyloxy)ethyl 3-(1-piperazinyl)-2-pyrazinyl ether]",170 to 175 °C
24,"Fc1cc(F)c(F)c(OCCOc2nccnc2N2CCNCC2)c1 (as salt: fumarate) [Example 106, 2-[2-(2,3,5-Trifluorophenoxy)ethoxy]-3-(1-piperazinyl)pyrazine]",158 to 159 °C

# Target: T1, human 5-HT2c receptor (Homo sapiens, UniProt P28335)
# T1 construct: expressed in transfected cells
# T1 sequence (P28335 33-458): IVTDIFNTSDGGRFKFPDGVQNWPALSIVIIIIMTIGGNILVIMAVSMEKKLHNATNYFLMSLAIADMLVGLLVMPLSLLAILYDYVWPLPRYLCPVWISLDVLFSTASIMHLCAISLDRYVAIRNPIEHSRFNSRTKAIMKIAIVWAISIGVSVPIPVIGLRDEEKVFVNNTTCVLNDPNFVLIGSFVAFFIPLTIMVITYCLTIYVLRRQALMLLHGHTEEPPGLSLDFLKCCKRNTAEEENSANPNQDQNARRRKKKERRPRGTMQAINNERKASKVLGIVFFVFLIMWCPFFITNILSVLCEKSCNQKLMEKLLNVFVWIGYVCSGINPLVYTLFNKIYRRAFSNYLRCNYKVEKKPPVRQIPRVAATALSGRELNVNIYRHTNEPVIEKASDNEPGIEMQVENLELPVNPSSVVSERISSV
# Assay: 5-HT2c receptor affinity assay (displacement of 3H-labelled 5-HT, Scintillation Proximity Assay)
# Conditions: displacement of 3H-5-HT from membranes of transfected HEK293 cells expressing human 5-HT2c receptor; non-specific binding 5 μM mianserin
# Description: The 5-HT2c receptor affinity of compounds in the Examples was determined in competition experiments, where the ability of each compound in serial dilution to displace ^3H-labelled 5-HT, bound to membranes prepared from a transfected HEK293 cell line stably expressing the human 5-HT2c receptor protein was monitored by Scintillation Proximity Assay technology. Non-specific binding was defined using 5 μM mianserin. Typically, the 5HT2c receptor affinity values (Ki, nM) were in the range of 1 nM to 1500 nM.
row,SMILES,pKi
1,"c1ccc(COc2cccc(OCCOc3nccnc3N3CCNCC3)c2)cc1 [Example 231, 2-{2-[3-(Benzyloxy)phenoxy]ethoxy}-3-(1-piperazinyl)pyrazine]",7.92
2,"NC1CCN(c2nccnc2OCCOc2ccccc2Cl)C1 (stereo not drawn) [Example 23, 2-(2-Chlorophenoxy)ethyl 3-(3-amino-1-pyrrolidinyl)-2-pyrazinyl ether]",6.42
